Laboratory results as given in patent US20080139668A1, “PHARMACEUTICAL COMPOSITION FOR OBOVATOL FOR THE PREVENTION AND TREATMENT OF RESTENOSIS” (Korea Research Institute of Bioscience and Biotechnology, priority 2006, published 2008).

How the values were obtained:
injured carotid artery [1] = test: Carotid artery angiography in the rat carotid artery balloon injury model; format: in vivo; conditions: 100 μg obovatol in 100 μL pluronic gel, topical to injured carotid artery; 14 days after arteriotomy; mean±S.E.; control 0.63±0.12; p<0.01
Method: A 4F vascular cannula (Cook, USA) was inserted into the ventral aorta and the catheter was advanced toward the head to a locus as close as possible to a branch between the common carotid arteryand the transverse aorta. After the injection of a contrast media (Visipaque™, Amersham Health, Cork, Ireland), mean luminal diameters (MLD) were measured using computerized coronary angiography (DCI Videodensitometry, Phillips, Netherlands)(See FIG. 1˜FIG. 8).
They were measured for the inner diameter of the carotid artery using a 5F coronary catheter, and the mean value thereof was used as a control.

[2] = test system: arterial smooth muscle cells; test: Inhibition of PDGF-induced arterial smooth muscle cell proliferation (cell count); format: cell-based, rat; conditions: obovatol 1, 3, 5 μM; 50 ng/ml PDGF-BB; 24, 48, 72 hours; FIG. 9
Method: Obovatol was examined for inhibitory activity against the proliferation of arterial smooth muscle cells in rats. Arterial smooth muscle cells were plated at a density of 3.0×10^4 cells/well onto 12-well plates containing a DMEM medium supplemented with 0.5% (V/V) fetal bovine serum, and incubated for 24 hours After the addition of obovatol (1, 3, and 5 μM) to the plates, the cells were incubated for 24 hours. Treatment with 50 ng/ml of platelet-derived growth factor (PDGF-BB, Sigma Chem. Co., USA) was followed by incubation for 24, 48, and 72 hours. Thereafter, the cells were trypsinized and counted using a cell counter.

injured carotid artery [3] = test system: injured carotid artery
Method: For the topical application of obovatol in vivo, pluronic gel was employed. F-127 pluronic gel (Sigma Chemical Company, Germany) was dissolved in cold, deionized water to give 40% gel one day before the experiment, and was allowed to stand at 4° C. for 12 hours to dissolve powdered F-127 pluronic gel completely. On the day of the experiment, obovatol was dissolved in a concentration of 10 μg/μL in 100% ethanol and 10 μL of the obovatol solution (10 μg/μL) was mixed with 90 μL of the 40% F-127 pluronic gel to afford 100 μL of obovatol-pluronic gel, comprising 100 μg of obovatol. A control was prepared in the same manner except that no obovatol was contained therein.
After rats were anaesthetized by abdominal injection with ketamine (50 mg/kg) and xylazine (6.7 mg/kg) and incised to expose the common carotid artery, the external carotid artery and the internal carotid artery were exteriorized through a ventral right line neck incision. While blood flow was temporarily halted by occluding the artery with microvascular clamps (Acland, S&T, Switzerland) at the proximal region of the common carotid artery and the distal region of the internal carotid artery, arteriotomy was performed on the external carotid artery. A 2F Fogarty arterial embolectomy catheter (Baxter Healthcare Corporation, USA) was inserted into the lumen of the right common carotid artery through the incised region and the balloon was inflated to a size larger than the diameter of the common carotid artery so as to generate slight arterial wall resistance. The catheter was advanced a predetermined distance and then withdrawn. This procedure was repeated a total of three times to induce endothelial denudation, after which the catheter (the balloon?) was removed from the arterial lumen. Then, the microvascular clamps were removed to allow blood to flow through the artery. Secretions and blood were completely removed from the exterior of the carotid artery before the obovatol-pluronic gel or the obovatol-lacking pluronic gel were topically applied in an amount of 100 μL to upper loci of the carotid artery, followed by ligation of the artery with a suture. Two weeks after the arteriotomy, a carotid artery angiography was conducted and a carotid artery sample was taken and analyzed histopathologically.

ICR mice = test: Acute toxicity assay in mice; format: in vivo, mouse; conditions: abdominal injection 1000, 100, 10 mg/kg
Method: (§1) ICR mice (weighing 25±5 g) and SPF Sprague-Dawley rats (weighing 235±10 g) were separately divided into four groups of three and abdominally injected with the obovatol prepared in Example 2 at doses of 1000 mg/kg, 100 mg/kg, and 10 mg/kg and monitored for toxicity over 24 hours.

[4] = test system: arterial smooth muscle cells; test: Cell cycle of arterial smooth muscle cells; format: cell-based
SPF Sprague-Dawley rats = test: Acute toxicity assay in rats; format: in vivo, rat; conditions: abdominal injection 1000, 100, 10 mg/kg
Method: as §1

[5] = test system: arterial smooth muscle cells; test: Inhibition of DNA synthesis ([3H] thymidine) in PDGF-treated arterial smooth muscle cells; format: cell-based, rat; conditions: obovatol 1, 3, 5 μM, FIG. 10
Method: Arterial smooth muscle cells were cultured in the same manner as in Example 4, with the exception that the cells were cultured for 20 hours after treatment with platelet-derived growth factor, and then cultured for 4 hours in the presence of 1 μl of [3H] thymidine. The cultured cells were washed with PBS and incubated with 500 μl of TCA (trichloroacetic acid) for 30 min. After the removal of TCA, the cells were washed with a mixture of 1:1 ethanol:ether (v/v) and disrupted with 500 μl of NaOH. The cell lysate was mixed with 5 ml of a scintillation cocktail and measured for radioactivity to analyze relative amounts of newly synthesized DNA. FIG. 10 is a graph in which amounts of newly synthesized DNA in PDGF-treated arterial smooth muscle cells are plotted against concentrations of obovatol.

[6] = 100 μg obovatol in pluronic gel, topical, two weeks after injury, control 0.18 ± 0.06, P < 0.05

obovatol
inner diameter of carotid artery (mean luminal diameter) (injured carotid artery [1]): 0.78±0.06 mm
growth of arterial smooth muscle cells (cell count) [2]: inhibitory of the growth of arterial smooth muscle cells
Medial Area (mm^2) (injured carotid artery [3]; 100 μg obovatol in pluronic gel, topical, two weeks after injury, control 0.12 ± 0.02, P > 0.05): 0.11 ± 0.10 mm^2
Intimal Area (mm^2) (injured carotid artery [3]; [6]): 0.13 ± 0.03 mm^2
Intimal Thickness (mm) (injured carotid artery [3]; [6]): 0.23 ± 0.02 mm
Intimal-Medial Area Ratio (injured carotid artery [3]; 100 μg obovatol in pluronic gel, topical, two weeks after injury, control 1.54 ± 0.48, P < 0.05): 1.12 ± 0.23
Stenosis (%) (injured carotid artery [3]; 100 μg obovatol in pluronic gel, topical, two weeks after injury, control 50.10 ± 13.25, P < 0.01): 34.94 ± 7.23%
cytotoxicity inferred from similar medial thickness to control (injured carotid artery [3]; rat, in vivo): no cytotoxicity
abnormality (body weight, food intake, etc.) (ICR mice; 24 hours): no abnormality observed in any of the animals
death (ICR mice; monitored 24 hours): Death was observed in none of the four groups
proportion of cells in resting state (G0/G1) of the cell cycle [4]: increased the proportion of cells in a resting state (G0/G1)
abnormality (body weight, food intake, etc.) (SPF Sprague-Dawley rats; 24 hours): no abnormality observed in any of the animals
death (SPF Sprague-Dawley rats; monitored 24 hours): Death was observed in none of the four groups
DNA synthesis ([3H] thymidine incorporation) [5]: decreases with the increasing concentration of obovatol
